System: MV-4-11 cells
Assay: Gene expression microarray analysis (Affymetrix PrimeView) and GSEA
Type: cell-based, human
Design: RFU PODN (11730768_x_at) / Fold change /veh PODN (11730768_x_at) / RFU LINC00158 (11744669_a_at) / Fold change /veh LINC00158 (11744669_a_at) / RFU DUSP10 (11751237_a_at) / Fold change /veh DUSP10 (11751237_a_at) / RFU ID3 (11757404_x_at) / Fold change /veh ID3 (11757404_x_at) / RFU PLEKHG5 (11737974_s_at) / Fold change /veh PLEKHG5 (11737974_s_at) / RFU LRRC4B (11730491_at) / Fold change /veh LRRC4B (11730491_at) / RFU GIMAP4 (11747438_a_at) / Fold change /veh GIMAP4 (11747438_a_at) / RFU KRT8 (11758183_x_at) / Fold change /veh KRT8 (11758183_x_at) / RFU CNN1 (11734310_a_at) / Fold change /veh CNN1 (11734310_a_at) / RFU VPS37D (11726825_at) / Fold change /veh VPS37D (11726825_at) / RFU C10orf10 (11716522_x_at) / Fold change /veh C10orf10 (11716522_x_at) / RFU KIR2DL2 /// KIR2DL4 /// KIR2DL5A /// KIR2DL5B /// KIR2DS1 /// KIR2DS2 /// KIR2DS3 /// KIR2DS4 /// KIR3DL3 /// KIR3DL3 /// KIR3DS1 (11738374_at) / Fold change /veh KIR2DL2 /// KIR2DL4 /// KIR2DL5A /// KIR2DL5B /// KIR2DS1 /// KIR2DS2 /// KIR2DS3 /// KIR2DS4 /// KIR3DL3 /// KIR3DL3 /// KIR3DS1 (11738374_at) / RFU C1QL1 (11718748_at) / Fold change /veh C1QL1 (11718748_at) / RFU TMPRSS4 (11747572_a_at) / Fold change /veh TMPRSS4 (11747572_a_at) / RFU HAMP (11756126_x_at) / Fold change /veh HAMP (11756126_x_at) / RFU RNFT2 (11725882_a_at) / Fold change /veh RNFT2 (11725882_a_at) / RFU NR4A2 (11747474_a_at) / Fold change /veh NR4A2 (11747474_a_at) / RFU ABCC12 (11746883_a_at) / Fold change /veh ABCC12 (11746883_a_at) / RFU TMEM136 (11760407_x_at) / Fold change /veh TMEM136 (11760407_x_at) / RFU CLDN22 /// WWC2 (11732394_at) / Fold change /veh CLDN22 /// WWC2 (11732394_at) / RFU HLA-DPB1 (11760878_x_at) / Fold change /veh HLA-DPB1 (11760878_x_at) / RFU SPINT1 (11716480_a_at) / Fold change /veh SPINT1 (11716480_a_at) / RFU GAP43 (11754022_s_at) / Fold change /veh GAP43 (11754022_s_at) / RFU A4GNT (11735810_at) / Fold change /veh A4GNT (11735810_at) / RFU PRB3 (11715151_x_at) / Fold change /veh PRB3 (11715151_x_at) / RFU TUBB4B (11761932_at) / Fold change /veh TUBB4B (11761932_at) / RFU CAPN14 (11732068_a_at) / Fold change /veh CAPN14 (11732068_a_at) / RFU TMCC2 (11721928_a_at) / Fold change /veh TMCC2 (11721928_a_at) / RFU IRGQ (11745062_a_at) / Fold change /veh IRGQ (11745062_a_at) / RFU FAM174B (11720279_a_at) / Fold change /veh FAM174B (11720279_a_at) / RFU TMPRSS4 (11748680_a_at) / Fold change /veh TMPRSS4 (11748680_a_at) / RFU FAM212B (11763350_a_at) / Fold change /veh FAM212B (11763350_a_at) / RFU PLEKHG5 (11743358_a_at) / Fold change /veh PLEKHG5 (11743358_a_at) / RFU ZSCAN30 (11745921_a_at) / Fold change /veh ZSCAN30 (11745921_a_at) / RFU CMKLR1 (11741424_a_at) / Fold change /veh CMKLR1 (11741424_a_at) / RFU LOC101060620 /// MAPK8IP1 (11723275_at) / Fold change /veh LOC101060620 /// MAPK8IP1 (11723275_at) / RFU SPTSSB (11747773_x_at) / Fold change /veh SPTSSB (11747773_x_at) / RFU PRSS12 (11739890_at) / Fold change /veh PRSS12 (11739890_at) / RFU BIN1 (11741810_x_at) / Fold change /veh BIN1 (11741810_x_at) / RFU WNT11 (11732464_a_at) / Fold change /veh WNT11 (11732464_a_at) / RFU C10orf10 (11716521_a_at) / Fold change /veh C10orf10 (11716521_a_at) / RFU C5orf56 (11738089_at) / Fold change /veh C5orf56 (11738089_at) / RFU CYB561 (11721691_x_at) / Fold change /veh CYB561 (11721691_x_at) / RFU ANKRD19P (11752326_a_at) / Fold change /veh ANKRD19P (11752326_a_at) / RFU OR2T12 /// OR2T33 /// OR2T8 (11738714_s_at) / Fold change /veh OR2T12 /// OR2T33 /// OR2T8 (11738714_s_at) / RFU VCAN (11748164_a_at) / Fold change /veh VCAN (11748164_a_at) / RFU JSRP1 (11732532_at) / Fold change /veh JSRP1 (11732532_at) / RFU KRTAP10-11 (11738290_x_at) / Fold change /veh KRTAP10-11 (11738290_x_at) / RFU MYO3A (11730013_a_at) / Fold change /veh MYO3A (11730013_a_at) / RFU EBF3 (11725865_a_at) / Fold change /veh EBF3 (11725865_a_at) / RFU CAMK2N1 (11719241_x_at) / Fold change /veh CAMK2N1 (11719241_x_at) / RFU C5orf56 (11738088_a_at) / Fold change /veh C5orf56 (11738088_a_at) / RFU OLFML3 (11715873_a_at) / Fold change /veh OLFML3 (11715873_a_at) / RFU LOC100653217 /// NTM (11731650_a_at) / Fold change /veh LOC100653217 /// NTM (11731650_a_at) / RFU MAPK11 (11762145_a_at) / Fold change /veh MAPK11 (11762145_a_at) / RFU FIZ1 (11724087_x_at) / Fold change /veh FIZ1 (11724087_x_at) / RFU OASL (11726364_x_at) / Fold change /veh OASL (11726364_x_at) / RFU SOX15 (11748057_x_at) / Fold change /veh SOX15 (11748057_x_at) / RFU CD79A (11719716_a_at) / Fold change /veh CD79A (11719716_a_at) / RFU HIST1H1D (11736915_at) / Fold change /veh HIST1H1D (11736915_at) / RFU CASKIN2 (11723855_a_at) / Fold change /veh CASKIN2 (11723855_a_at) / RFU LOC730098 (11760151_x_at) / Fold change /veh LOC730098 (11760151_x_at) / RFU OR4N2 (11742367_at) / Fold change /veh OR4N2 (11742367_at) / RFU PRRT2 (11749266_a_at) / Fold change /veh PRRT2 (11749266_a_at) / RFU SNX32 (11753110_a_at) / Fold change /veh SNX32 (11753110_a_at) / RFU CDHR5 (11726645_a_at) / Fold change /veh CDHR5 (11726645_a_at) / RFU RCAN1 (11760418_a_at) / Fold change /veh RCAN1 (11760418_a_at) / RFU FAM167A (11723789_a_at) / Fold change /veh FAM167A (11723789_a_at) / RFU FAM26E (11764081_at) / Fold change /veh FAM26E (11764081_at) / RFU ISYNA1 (11749810_s_at) / Fold change /veh ISYNA1 (11749810_s_at) / RFU ACY1 (11761880_at) / Fold change /veh ACY1 (11761880_at) / RFU 11764098_at / Fold change /veh 11764098_at / RFU SAMD14 (11745864_x_at) / Fold change /veh SAMD14 (11745864_x_at) / RFU NPB (11741838_a_at) / Fold change /veh NPB (11741838_a_at) / RFU TMPRSS6 (11731388_a_at) / Fold change /veh TMPRSS6 (11731388_a_at) / RFU KRTAP10-2 (11738614_at) / Fold change /veh KRTAP10-2 (11738614_at) / RFU ARHGAP8 /// PRR5-ARHGAP8 (11727945_x_at) / Fold change /veh ARHGAP8 /// PRR5-ARHGAP8 (11727945_x_at) / RFU KRTAP5-7 /// NADSYN1 (11734609_at) / Fold change /veh KRTAP5-7 /// NADSYN1 (11734609_at) / RFU RASL12 (11751679_a_at) / Fold change /veh RASL12 (11751679_a_at) / RFU CDKN2B (11736163_a_at) / Fold change /veh CDKN2B (11736163_a_at) / RFU PRF1 (11729649_at) / Fold change /veh PRF1 (11729649_at) / RFU, ZNF638 /// ZNF638-IT1 / Fold change vs veh, ZNF638 /// ZNF638-IT1 / RFU, PANK3 / Fold change vs veh, PANK3 / RFU, SH3YL1 / Fold change vs veh, SH3YL1 / RFU, ZEB2 / Fold change vs veh, ZEB2 / RFU, NRIP1 / Fold change vs veh, NRIP1 / RFU, PTTG1IP / Fold change vs veh, PTTG1IP / RFU, CAPN2 / Fold change vs veh, CAPN2 / RFU, MED14 / Fold change vs veh, MED14 / RFU, SNORA58 / Fold change vs veh, SNORA58 / RFU, C1orf63 / Fold change vs veh, C1orf63 / RFU, LRRFIP1 / Fold change vs veh, LRRFIP1 / RFU, NDUFAF7 / Fold change vs veh, NDUFAF7 / RFU, SLC12A2 / Fold change vs veh, SLC12A2 / RFU, IBTK / Fold change vs veh, IBTK / RFU, ESF1 / Fold change vs veh, ESF1 / Fold change vs veh, TMEM50B / RFU, TAOK1 / Fold change vs veh, TAOK1 / RFU, ACBD3 / Fold change vs veh, ACBD3 / RFU, TMA16 / Fold change vs veh, TMA16 / RFU, RWDD3 / Fold change vs veh, RWDD3 / RFU, BCAT1 / Fold change vs veh, BCAT1 / RFU, EDEM3 / Fold change vs veh, EDEM3 / RFU, TMEM33 / Fold change vs veh, TMEM33 / RFU, WDR75 / Fold change vs veh, WDR75 / RFU, AHCTF1 / Fold change vs veh, AHCTF1 / RFU, TFRC / Fold change vs veh, TFRC / RFU, ZDHHC17 / Fold change vs veh, ZDHHC17 / RFU, NOM1 / Fold change vs veh, NOM1 / RFU, ARL8B / Fold change vs veh, ARL8B / RFU, ZBTB11 / Fold change vs veh, ZBTB11 / RFU, TAMM41 / Fold change vs veh, TAMM41 / RFU, KIAA1704 /// LOC100996395 / Fold change vs veh, KIAA1704 /// LOC100996395 / RFU, ING1 / Fold change vs veh, ING1 / RFU, TRMT61B / Fold change vs veh, TRMT61B / RFU, FUBP3 / Fold change vs veh, FUBP3 / RFU, TP53 / Fold change vs veh, TP53 / RFU, TNKS2 / Fold change vs veh, TNKS2 / RFU, ZFP14 / Fold change vs veh, ZFP14 / RFU, ACTR2 / Fold change vs veh, ACTR2 / RFU, PPP3R1 / Fold change vs veh, PPP3R1 / RFU, PIK3R1 / Fold change vs veh, PIK3R1 / RFU, HNRNPA1 / Fold change vs veh, HNRNPA1 / RFU, RNF170 / Fold change vs veh, RNF170 / RFU, ZNF28 / Fold change vs veh, ZNF28 / RFU, RNGTT / Fold change vs veh, RNGTT / RFU, OGT / Fold change vs veh, OGT / RFU, BRD1 / Fold change vs veh, BRD1 / RFU, MARS / Fold change vs veh, MARS / RFU, ZNF655 / Fold change vs veh, ZNF655 / RFU, FAHD1 / Fold change vs veh, FAHD1 / RFU, BDP1 / Fold change vs veh, BDP1 / RFU, LRRCC1 / Fold change vs veh, LRRCC1 / RFU, ARID1A / Fold change vs veh, ARID1A / RFU, ZNF146 / Fold change vs veh, ZNF146 / RFU, ZNF330 / Fold change vs veh, ZNF330 / RFU, GPN3 / Fold change vs veh, GPN3 / RFU, C9orf123 / Fold change vs veh, C9orf123 / RFU, N4BP2L2 / Fold change vs veh, N4BP2L2 / RFU, ARFIP1 / Fold change vs veh, ARFIP1 / RFU, FAM179B / Fold change vs veh, FAM179B / RFU, BCL10 / Fold change vs veh, BCL10 / RFU, UHRF1BP1L / Fold change vs veh, UHRF1BP1L / RFU, BET1 / Fold change vs veh, BET1 / RFU, CNOT2 / Fold change vs veh, CNOT2 / RFU, ZNF268 / Fold change vs veh, ZNF268 / Fold change vs veh, ZNF507 / RFU, DGCR2 / Fold change vs veh, DGCR2 / RFU, WDSUB1 / Fold change vs veh, WDSUB1 / Fold change vs veh, HSP90B1 /// MIR3652 / RFU, ADSS / Fold change vs veh, ADSS / RFU, GK / Fold change vs veh, GK / RFU, ZNF148 / Fold change vs veh, ZNF148 / RFU, TAF9 / Fold change vs veh, TAF9 / RFU, SLC1A5 / Fold change vs veh, SLC1A5 / RFU, SLMO2 / Fold change vs veh, SLMO2 / RFU, ABCC4 / Fold change vs veh, ABCC4 / RFU, LOC101060439 /// RAP1B / Fold change vs veh, LOC101060439 /// RAP1B / RFU, RFX7 / Fold change vs veh, RFX7 / RFU, GTPBP10 / Fold change vs veh, GTPBP10 / RFU, CNEP1R1 / Fold change vs veh, CNEP1R1 / RFU, BIVM-ERCC5 /// ERCC5 / Fold change vs veh, BIVM-ERCC5 /// ERCC5 / RFU, ILF3 / Fold change vs veh, ILF3 / RFU 11762660_at / Fold change /veh 11762660_at / RFU VCAN (11757783_s_at) / Fold change /veh VCAN (11757783_s_at) / RFU DDX43 (11728927_at) / Fold change /veh DDX43 (11728927_at) / RFU KRT8 (11758188_x_at) / Fold change /veh KRT8 (11758188_x_at) / RFU NKD1 (11759106_at) / Fold change /veh NKD1 (11759106_at) / RFU SRD5A1 (11742802_a_at) / Fold change /veh SRD5A1 (11742802_a_at) / RFU TPSAB1 /// TPSB2 (11721975_s_at) / Fold change /veh TPSAB1 /// TPSB2 (11721975_s_at) / RFU GSTM3 (11746129_a_at) / Fold change /veh GSTM3 (11746129_a_at) / RFU IL23R (11737362_x_at) / Fold change /veh IL23R (11737362_x_at) / RFU TMEM51 (11727254_a_at) / Fold change /veh TMEM51 (11727254_a_at) / RFU PIWIL2 (11732686_x_at) / Fold change /veh PIWIL2 (11732686_x_at) / RFU ORM1 (11744905_x_at) / Fold change /veh ORM1 (11744905_x_at) / RFU CCDC152 (11743942_at) / Fold change /veh CCDC152 (11743942_at) / RFU ECM1 (11717891_a_at) / Fold change /veh ECM1 (11717891_a_at) / RFU IL23R (11748794_a_at) / Fold change /veh IL23R (11748794_a_at) / RFU TNFAIP8L3 (11732012_x_at) / Fold change /veh TNFAIP8L3 (11732012_x_at) / RFU MBOAT4 (11741988_at) / Fold change /veh MBOAT4 (11741988_at) / RFU 11764193_at / Fold change /veh 11764193_at / RFU TMEM53 (11763286_at) / Fold change /veh TMEM53 (11763286_at) / RFU MAGEB2 (11727129_at) / Fold change /veh MAGEB2 (11727129_at) / RFU TMEM200A (11744735_a_at) / Fold change /veh TMEM200A (11744735_a_at) / RFU CCDC152 (11751479_a_at) / Fold change /veh CCDC152 (11751479_a_at) / RFU FAM211A (11726209_a_at) / Fold change /veh FAM211A (11726209_a_at) / RFU RGS16 (11746705_a_at) / Fold change /veh RGS16 (11746705_a_at) / RFU VCAN (11755009_s_at) / Fold change /veh VCAN (11755009_s_at) / RFU RHOB (11743442_s_at) / Fold change /veh RHOB (11743442_s_at) / RFU RGS16 (11720943_a_at) / Fold change /veh RGS16 (11720943_a_at) / RFU RGS16 (11720944_at) / Fold change /veh RGS16 (11720944_at) / RFU, VPS4B / Fold change vs veh, VPS4B / RFU, CREB1 / Fold change vs veh, CREB1 / RFU, DNAJC13 / Fold change vs veh, DNAJC13 / RFU, GNAQ / Fold change vs veh, GNAQ / RFU, CDK5R1 / Fold change vs veh, CDK5R1 / RFU, ZRANB3 / Fold change vs veh, ZRANB3 / RFU, CUL4A / Fold change vs veh, CUL4A / RFU, CCNY / Fold change vs veh, CCNY / RFU, UFL1 / Fold change vs veh, UFL1 / RFU, COG3 / Fold change vs veh, COG3 / RFU, DIAPH2 / Fold change vs veh, DIAPH2 / RFU, SKA2 / Fold change vs veh, SKA2 / RFU, AFF3 / Fold change vs veh, AFF3 / RFU, LMF1 / Fold change vs veh, LMF1 / RFU, IPO11 / Fold change vs veh, IPO11 / RFU, DFFB / Fold change vs veh, DFFB / RFU, FOXP1 / Fold change vs veh, FOXP1 / RFU, CARD8 / Fold change vs veh, CARD8 / RFU, STRN3 / Fold change vs veh, STRN3 / RFU, ADK / Fold change vs veh, ADK / RFU, RASSF2 / Fold change vs veh, RASSF2 / RFU, WIPF1 / Fold change vs veh, WIPF1 / RFU, LARP1B / Fold change vs veh, LARP1B / RFU, RASA1 / Fold change vs veh, RASA1 / RFU, RB1 / Fold change vs veh, RB1 / RFU, PPFIA1 / Fold change vs veh, PPFIA1 / RFU, MAT2A / Fold change vs veh, MAT2A / RFU, CCT5 / Fold change vs veh, CCT5 / RFU, WDR92 / Fold change vs veh, WDR92 / RFU, CUX1 / Fold change vs veh, CUX1 / RFU, TTC7A / Fold change vs veh, TTC7A / RFU, TMEM135 / Fold change vs veh, TMEM135 / RFU, DEPTOR / Fold change vs veh, DEPTOR / RFU, CPM / Fold change vs veh, CPM / RFU, DNAJB6 / Fold change vs veh, DNAJB6 / RFU, CACNA2D3 / Fold change vs veh, CACNA2D3 / RFU, DTX4 / Fold change vs veh, DTX4 / RFU, TFCP2 / Fold change vs veh, TFCP2 / RFU, GMCL1 /// GMCL1P1 / Fold change vs veh, GMCL1 /// GMCL1P1 / RFU, AEBP2 / Fold change vs veh, AEBP2 / RFU, SNHG1 /// SNORD22 /// SNORD25 /// SNORD26 /// SNORD27 /// SNORD28 /// SNORD29 /// SNORD31 / Fold change vs veh, SNHG1 /// SNORD22 /// SNORD25 /// SNORD26 /// SNORD27 /// SNORD28 /// SNORD29 /// SNORD31 / Fold change (Aza/veh), C12orf56 (ProbeSet 11735607_a_at) / Fold change (ACY-1035/veh), C12orf56 (ProbeSet 11735607_a_at) / Fold change (Aza/veh), FGFR1OP (ProbeSet 11751329_s_at) / Fold change (ACY-1035/veh), FGFR1OP (ProbeSet 11751329_s_at) / Fold change (Aza/veh), VPS36 (ProbeSet 11739960_a_at) / Fold change (ACY-1035/veh), VPS36 (ProbeSet 11739960_a_at) / RFU SYPL1 (11715823_x_at) / Fold change /veh SYPL1 (11715823_x_at) / RFU IGFBP7 (11715501_s_at) / Fold change /veh IGFBP7 (11715501_s_at) / RFU REEP3 (11722064_at) / Fold change /veh REEP3 (11722064_at) / RFU IGLL1 (11728026_x_at) / Fold change /veh IGLL1 (11728026_x_at): dose or concentration left out as unconfirmed
Conditions: MV-4-11 cells, 48 hours

Nc1ccc(-c2cccs2)cc1NC(=O)c1ccc2c(c1)cc(C1CC1)n2CCN1CCOCC1 [ACY-1035]
Fold change /veh FIZ1 (11724087_x_at): 1.06
